From paper PMC12228513 (Journal of the American Chemical Society, 2025)

Target: T1, AlnA (Streptomyces sp. CM020, UniProt B6SEG5)
T1 sequence (B6SEG5 1-306): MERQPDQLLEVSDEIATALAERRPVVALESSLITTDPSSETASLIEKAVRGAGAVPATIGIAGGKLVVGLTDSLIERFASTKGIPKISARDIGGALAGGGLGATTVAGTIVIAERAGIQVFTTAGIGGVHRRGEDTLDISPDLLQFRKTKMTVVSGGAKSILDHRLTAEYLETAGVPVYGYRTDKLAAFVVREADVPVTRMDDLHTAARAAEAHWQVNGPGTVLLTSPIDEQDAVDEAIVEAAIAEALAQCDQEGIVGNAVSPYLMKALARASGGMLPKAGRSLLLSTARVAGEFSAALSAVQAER
Assay: protein mass spectrometry after NaBH4 trapping
Format: binding
Details: covalent; Schiff base at Lys159

`O=P(O)(O)OC[C@H]1OC(O)[C@H](O)[C@@H]1O` (stereo partly shown) [compound 4, ribose 5-phosphate] was tested, and the “protein mass spectrometry after NaBH4 trapping; tryptic proteolysis” value was “the covalent modification occurred at the highly conserved Lys159 residue in AlnA”.
